Patent US11591301B2, “Indoleamine-2,3-dioxygenase inhibitor, preparation method therefor and use thereof” (HINOVA PHARMACEUTICALS INC., priority 2018, dated 2023)

What was measured:
[1] = target: human IDO1 protease (Homo sapiens (Human), UniProt P14902); assay: Inhibitory activity against human IDO1 protease (absorbance test method); type: biochemical; details: IDO1 (His-tag) enzyme, absorbance at 320 nm
Method: IDO1 (His-tag) enzyme(BPS Bioscience), L-tryptophan (Sigma), methylene blue (Sigma), Catalase originated from the liver of cattle (Sigma), L-ascorbic acid (Sigma), glycerol (Sigma), potassium dihydrogen phosphate solution (Sigma), Tween 20 (Sigma), automatic sampling platformLiquid handler (Bravo & Echo), microplate ReaderSpectraMax M5e (Molecular Devices).
2) Test Method of Compounds: The Compounds are Determined by Absorbance Test Method:
The tested compounds are dissolved in DMSO to prepare a high concentration of storage solution. The stock solution of reference compound was diluted with DMSO to prepare a 100× solution. In the first column of the working plate, 8 μL above tested compounds and 8 μL 100× reference compound were respectively added as the highest concentration, and then the highest concentrations were subjected to three times dilution to obtain 11 concentrations and prepare 100× solution. 0.5 μL solution was transferred from the above plate to the detection plate. To each well was added 0.5 μL 100× compound solution. For HPE and ZPE control wells, 0.5 μL 100% DMSO was added. 25 μL 2×IDO1 (His-tag) enzyme solution (containing L-ascorbic acid, methylene blue, and catalase) was added to each well. 25 μL reaction solution without IDO1 (His-tag) enzyme was added into HPE control well. The test plate was centrifugated at 1000 rpm for 1 minute to mix well. Then, the test plate was incubated at room temperature for 30 minutes. 25 μL above 2× substrate (L-tryptophan) solution was added to each well. The test plate was centrifugated at 1000 rpm for 1 minute to mix well. The detection plate was placed on ELISA (SpectraMax M5e), the temperature was set at 25° C., and the absorbance (OD value) was measured at 320 nm every 10 minutes till 60 minutes.
Calculating the increase ratio of absorbance: the slope of the absorbance increase curve from 10 min to 60 min is derived from SpectralMax M5e. The inhibition coefficient of compound was calculated: the inhibition ratio of compound=(the absorbance increase ratio of ZPE control well−the absorbance increase ratio of compound well)/(the absorbance increase ratio of ZPE control well−the absorbance increase ratio of HPE control well)×100. Results was analyzed by Prism 5.0.

[2] = target: IDO1 protease activity in Hela cells (Homo sapiens (Human), UniProt P14902); assay: Inhibition of IDO protease in HeLa cells (IDO/kynurenine experiment, IFN-γ induced); type: cell-based; details: 10 ng/mL IFN-γ, 48 h, OD480 nm, read-out: IC50, inhibitory activity against IDO1 protease activity in Hela cells
Method: 2) Experimental Method for Compound Assay 2.1 Seeding HeLa Cells into 96 Well Plate
The medium was taken out from the flask and the cells were washed with PBS. TrypLE solution was added to the flask to make the cells separate. The cells were further washed once with fresh medium containing 10% FBS, and then re-suspended in the medium until the final concentration was 2.3×10^6/mL. Only cells with activity greater than 90% can be used for detection. HeLa cells were planted into 100 μL suitable growth median 96 well plate at 3000 cells/well. The cells were incubated at 37° C. under 5% CO2 overnight.
The compound was diluted to the concentration of 10 mM with DMSO, that was then continuously diluted 3 times to get 9 concentrations. 5 μL compound was added into 45 μL media as the median dilution (10 times dilution, containing 10% DMSO). 96 μL fresh growth media were added to each well to reach the total volume of 196 μL. 2 μL compound solution was taken from the mid-diluted solution and added to the cells in the wells of the assay plate, and then incubated in a 5% CO2 incubator at 37° C. for 30 minutes. 2 μL human IFN-γ solution was added to reach a total volume of 200 μL, with the final concentration of 10 ng/mL, and the final concentration is 0.1%. The cells were incubated in 5% CO2 incubator at 37° C. for 48 h.
After incubating for another 48 hours in a 5% CO2 incubator at 37° C., 140 μL supernatant was added to each well and transferred to a new 96-well plate. 10 μL of 6.1N CCl3COOH was further added to each well, and incubated at 50° C. for 30 min after sealing. The plate was then centrifuged at 2500 rpm for 10 minutes. 100 μL supernatant in each well was transferred to another 96-well assay plate and mixed with 100 μL of 6% (w/v) p-dimethylaminobenzaldehyde. EnSpire was used to read the plate at OD480 nm.
The average data of HC (high control: 10 ng/mL IFN-γ) and LC (low control: no IFN-γ) were calculated for each screening plate. Percent inhibition of compound well (% inh)=100*(aveHC−cpd well)/(aveHC−ave LC). Finally, GraphPad Prism 6 software was used to calculate the IC50 values of compounds and draw the effect-concentration curve.

human IDO1 protease, sequence (P14902 whole entry): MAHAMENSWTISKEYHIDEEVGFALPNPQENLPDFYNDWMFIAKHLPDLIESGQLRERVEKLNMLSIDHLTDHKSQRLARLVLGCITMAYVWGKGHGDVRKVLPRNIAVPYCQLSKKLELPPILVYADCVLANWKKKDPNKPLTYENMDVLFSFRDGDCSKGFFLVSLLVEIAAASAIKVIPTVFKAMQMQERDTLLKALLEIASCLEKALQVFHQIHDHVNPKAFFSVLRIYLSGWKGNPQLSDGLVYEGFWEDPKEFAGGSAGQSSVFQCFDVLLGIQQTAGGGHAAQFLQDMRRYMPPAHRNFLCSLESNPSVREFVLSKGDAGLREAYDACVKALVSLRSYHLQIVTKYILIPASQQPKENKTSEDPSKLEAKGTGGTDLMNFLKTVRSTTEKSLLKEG
IDO1 protease activity in Hela cells, sequence (P14902 whole entry): as above

| Molecule | IC50 [1] | IC50 [2] | IC50 ([1]; listed as 11) |
| --- | --- | --- | --- |
| O=S(=O)(CCCNc1nonc1C(=NO)Nc1ccc(F)c(Br)c1)NO [Example 21, N-(3-bromo-4-fluorophenyl)-N′-hydroxyl-4-((3-(N-hydroxylsulfamoyl)propyl)amino)-1,2,5-oxadiazol-3-formamidine] | 99 nM | – | – |
| [2H]C([2H])([2H])NS(=O)(=O)CCCCNc1nonc1/C(=N/O)Nc1ccc(F)c(Br)c1 [Example 29, N-(3-bromo-4-fluorophenyl)-N′-hydroxyl-4-((4-(N-deuteratedmethylsulfamoyl)butyl)amino)-1,2,5-oxadiazol-3-formamidine] | – | 20 nM | – |
| O=S(=O)(CCCNc1nonc1C(=NO)Nc1ccc(F)c(Br)c1)NCCO [Example 16, N-(3-bromo-4-fluorophenyl)-N′-hydroxyl-4-((3-(N-(2-hydroxylethyl)sulfamoyl)propyl)amino)-1,2,5-oxadiazol-3-formamidine] | 51 nM | 32 nM | – |
| [2H]C([2H])([2H])N(C([2H])([2H])[2H])S(=O)(=O)CCCNc1nonc1/C(=N/O)Nc1ccc(F)c(Br)c1 [Example 28] | 106 nM | 16 nM | – |
| CCNS(=O)(=O)CCCNc1nonc1C(=NO)Nc1ccc(F)c(Br)c1 [Example 17, N-(3-bromo-4-fluorophenyl)-N′-hydroxyl-4-((3-(N-ethylsulfamoyl)propyl)amino)-1,2,5-oxadiazol-3-formamidine] | – | 10 nM | – |
| N-(3-bromo-4-fluorophenyl)-N′-hydroxyl-4-((2-(morpholinylsulfamoyl)ethyl)amino)-1,2,5-oxadiazol-3-formamidine [Example 9] | 162 nM | – | – |
| [2H]C([2H])([2H])N(C([2H])([2H])[2H])S(=O)(=O)CCCCNc1nonc1/C(=N/O)Nc1ccc(F)c(Br)c1 [Example 30] | – | 24 nM | – |
| [2H]C([2H])([2H])NS(=O)(=O)CCCSc1nonc1/C(=N/O)Nc1ccc(F)c(Br)c1 [Example 32] | – | 17 nM | – |
| O=S(=O)(CCCNc1nonc1C(=NO)Nc1ccc(F)c(Br)c1)NC1CC1 [Example 14, N-(3-bromo-4-fluorophenyl)-N′-hydroxyl-4-((3-(N-cyclopropylsulfamoyl)propyl)amino)-1,2,5-oxadiazol-3-formamidine] | 99 nM | 37 nM | – |
| O=S(=O)(CCCCNc1nonc1/C(=N/O)Nc1ccc(F)c(Br)c1)N1CC(F)C1 [Example 26, N-(3-bromo-4-fluorophenyl)-4-((4-((3-fluorazetidin-1-yl)sulfonyl)butyl)amino)-N′-hydroxyl-1,2,5-oxadiazol-3-amide] | – | 113 nM | – |
| O=S(=O)(CCNc1nonc1/C(=N/O)Nc1ccc(F)c(Br)c1)NCC(F)F [Example 6] | 87 nM | – | 44 nM |
| NS(=O)(=O)CCOCCNc1nonc1/C(=N/O)Nc1ccc(F)c(Br)c1 [Example 31, N-(3-bromo-4-fluorophenyl)-N′-hydroxyl-4-(2-(2-aminosulfonylethoxyl)-ethylamine)-1,2,5-diazol-3-formamidine] | – | 68 nM | – |
| [2H]C([2H])([2H])NS(=O)(=O)CCCSc1nonc1/C(=N/O)Nc1cccc(Br)c1F [Example 33, N-(3-bromo-2-fluorophenyl)-N′-hydroxyl-4-((3-(N-trideuteratedmethylsulfamoyl)propyl)sulfur)-1,2,5-oxadiazol-3-formamidine] | – | 69 nM | – |
| CCNS(=O)(=O)CCNc1nonc1C(=NO)Nc1ccc(F)c(Br)c1 [Example 3, N-(3-bromo-4-fluorophenyl)-N′-hydroxyl-4-((2-(N-ethylsulfamoyl)ethyl)amino)-1,2,5-oxadiazol-3-formamidine] | 74 nM | 35 nM | – |
| CONS(=O)(=O)CCCNc1nonc1C(=NO)Nc1ccc(F)c(Br)c1 [Example 20, N-(3-bromo-4-fluorophenyl)-N′-hydroxyl-4-((3-(N-methoxylsulfamoyl)propyl)amino)-1,2,5-oxadiazol-3-formamidine] | 99 nM | – | – |
| CN(C)S(=O)(=O)CCNc1nonc1/C(=N/O)Nc1ccc(F)c(Br)c1 [Example 7, N-(3-bromo-4-fluorophenyl)-N′-hydroxyl-4-((2-N,N-dimethylsulfamoylethyl)amino)-1,2,5-oxadiazol-3-formamidine] | 115 nM | – | – |
| CC(C)NS(=O)(=O)CCNc1nonc1C(=NO)Nc1ccc(F)c(Br)c1 [Example 4, N-(3-bromo-4-fluorophenyl)-N′-hydroxyl-4-((2-(isopropylsulfamoyl)ethyl)amino)-1,2,5-oxadiazol-3-formamidine] | 185 nM | – | – |
| CC(C)NS(=O)(=O)CCCNc1nonc1/C(=N/O)Nc1ccc(F)c(Br)c1 [Example 13, N-(3-bromo-4-fluorophenyl)-N′-hydroxyl-4-((3-(N-isopropylsulfamoyl)propyl)amino)-1,2,5-oxadiazol-3-formamidine] | 63 nM | 30 nM | – |
| O=S(=O)(CCNc1nonc1C(=NO)Nc1ccc(F)c(Br)c1)NCCO [Example 5, N-(3-bromo-4-fluorophenyl)-N′-hydroxyl-4-((2-(N-(2-hydroxylethyl)sulfamoyl)ethyl)amino)-1,2,5-oxadiazol-3-formamidine] | 49 nM | 15 nM | – |
| O=S(=O)(CCCCNc1nonc1/C(=N/O)Nc1ccc(F)c(Br)c1)N1CCC1 [Example 25, 4-((4-(azetidin-1-ylsulfonyl)butyl)amino)-N-(3-bromo-4-fluorophenyl)-N′-hydroxyl-1,2,5-diazol-3-formamidine] | – | 93 nM | – |
| CNS(=O)(=O)CCNc1nonc1C(=NO)Nc1ccc(F)c(Br)c1 [Example 2, N-(3-bromo-4-fluorophenyl)-N′-hydroxyl-4-((2-(N-methylsulfamoyl)ethyl)amino)-1,2,5-oxadiazol-3-formamidine] | 54 nM | 19 nM | – |
